What was measured:
GPR4 = target: T1, GPR4 (Homo sapiens, UniProt P46093); assay: Antagonistic action on GPR4 (luciferase reporter in GPR4 assay cells); type: cell-based; conditions: 17β-estradiol 10 nmol/L, 6 hours, luciferase luminescence
T1 construct: expressed in transfected cells; host or cells: KJMGER8 (Namalwa KJM-1 human B-cell line stably expressing Gal4-ER), stably co-transfected with pAGal9-GPR4 and the CRE-luciferase reporter pACREpluc
Experimental: Cells for GPR4 assay prepared in Referential Example 5 (said assay cells express GPR4 by stimulation with 17β-estradiol) were seeded on white plates at the rate of 10^5 cells/well, and a solution where 17β-estradiol (manufactured by Sigma) was diluted with a medium so as to make 10 nmol/L in the reaction solution and test compounds were added to the plate and the mixture was incubated at 37° C. for 6 hours in a 5% CO2 incubator. After that, a Steady Glo Luciferase Assay System (manufactured by Promega) solution was added to stop the reaction and the amount of luminescence during one second was measured using a Top Count (Packard, Meriden, Conn., U.S.A.).
Activity of the each of test compounds (antagonistic action) was expressed by an inhibition rate calculated on the basis of counts per second in the presence or absence of 17β-estradiol as shown by the following formula. IC50 value was calculated from the inhibition rate by a linear approximate analysis of the Logit-Log conversion method.
In the formula, A, B and C each have the following meaning, respectively.
A: counts per second when 17β-estradiol and the test compound were added
B: counts per second when neither 17β-estradiol nor the test compound was added
C: counts per second when only 17β-estradiol was added Inhibition Rate (%)=[1−{(A−B)/(C−B)}]×100
2 μl of plasmid pAGal9-GPR4 with inducible expression of GPR4 and 2 μl of reporter plasmid pACREpluc were co-transferred into 6×10^6 cell of KJMGER8 by the above-mentioned electroporation. The transformants were suspended in 8 ml of an RPMI 1640-ITPSG medium and cultured in a CO2 incubator at 37° C. for 24 hours. After the cultivation, blasticidin S ([…]), hygromycin B (300 μg/ml) and geneticin ([…]) were added and cultivation was carried out for 14 days more, and stable transformants (called GPR4 assay cells) were obtained. The transformants were subcultured in an RPMI 1640-ITPSG medium containing blasticidin S (2.0 μg/ml), hygromycin B (300 μg/ml) and geneticin ([…]).

Itching Induced by SPC = assay: Suppressive effect on itching induced by SPC (scratching behavior in mice); type: in vivo, ddY male mice; conditions: 300 mg/kg orally one hour before SPC (50 μg/site s.c.), counted for 60 minutes, ten mice per group
Experimental: SPC (50 μg/site) was subcutaneously administered (an SPC-administered group) to the rostal back of ddY male mice (3 to 4 weeks age), the mice were placed in a cage made of acrylic for the observation (7.5×7.5×15 cm) and behavior of the mice was taken by a video camera for 60 minutes in the absence of observing persons. The video camera was subjected to a playback and numbers of scratching behavior by hind limb were counted by visual observation. In a negative control group (a group to which a physiological saline was administered), a physiological saline (0.1 mL/site) was administered instead of SPC. In the compound-administered group, each compound 1 and compound 3 (300 mg/kg) was suspended in a 0.5 w/v % aqueous solution of methyl cellulose (MC) and orally administered at one hour before administration of SPC. In each of the SPC-administered group and the physiological saline-administered group, a 0.5 w/v % aqueous solution of MC (10 mL/kg) was orally administered at one hour before administration of SPC and physiological saline, respectively. The test was conducted for ten mice per group. Suppressive rate by the compounds for scratching behavior induced by SPC was calculated by the following formula. In the formula, A and B have the following meanings, respectively. […]

[1] = tested on: Itching Induced by Compound 48/80; assay: Effect on itching induced by Compound 48/80 (scratching behavior in mice); type: in vivo, ddY strain mice; conditions: 300 mg/kg orally one hour before Compound 48/80 (10 μg/site s.c.); for Numbers of Scratching Behavior (numbers/60 min): ten mice per group; for Suppressive rate(%) of scratching behavior induced by Compound 48/80: versus Compound 48/80-administered group
Experimental: Compound 48/80 (10 μg/site) was subcutaneously administered (a Compound 48/80-administered group) to the rostal back of ddY strain mice (4 weeks age), the mice were placed in a cage made of acrylic for the observation (7.5×7.5×15 cm) and behavior of the mice was taken by a video camera for 60 minutes in the absence of observing persons. The video camera was subjected to a playback and numbers of scratching behavior by hind limb were counted by visual observation. In a negative control group (a group to which a physiological saline was administered), a physiological saline (0.1 mL/site) was administered instead of Compound 48/80. In the compound-administered group, each compound 1 and compound 3 (300 mg/kg) was suspended in a 0.5 w/v % aqueous solution of methyl cellulose (MC) and orally administered at one hour before administration of Compound 48/80. In each of the Compound 48/80-administered group and the physiological saline-administered group, a 0.5 w/v % aqueous solution of MC was orally administered at one hour before administration of Compound 48/80 and physiological saline, respectively. The test was conducted for ten mice per group. Suppressive rate by the compound for scratching behavior induced by Compound 48/80 was calculated by the following formula.
In the formula, C and D have the following meanings.
C: numbers of scratching behavior of the Compound 48/80-administered group
D: numbers of scratching behavior of the compound-administered group Suppressive Rate (%)=[(C−D)/C]×100

[2] = tested on: Itching in Chronic Dermatitis Model to which Hapten was Repeatedly Applied; assay: Effect on itching in chronic dermatitis model to which hapten (oxazolone) was repeatedly applied; type: in vivo, BALB/c male mice; conditions: mean ± standard error, control group 264 ± 29
Experimental: Preparation of chronic dermatitis model to which hapten was repeatedly applied was conducted according to the method by Kitagaki, et al. [Journal of Investigative Dermatology, volume 105, pages 749-755 (1995)] with some modifications.
With regard to hapten, oxazolone (manufactured by Sigma-Aldrich) was used and dissolved in acetone (manufactured by Kanto Kagaku) to prepare a 0.5 w/v % solution of oxazolone in acetone (antigen solution). The antigen solution (10 μL) was applied to the rostal back of BALB/c male mice (6 weeks age) with the hair was shaved to sensitize the mice. Starting from 7 days thereafter (day 0), the antigen solution (10 μL) was repeatedly challenged to apply at the same site until day 16 every two or three days to prepare chronic dermatitis models.
Compound 1 was suspended in a 0.5 w/v % aqueous solution of MC in a concentration of 10 and 30 mg/mL, respectively, and orally administered at a dose of 10 mL/kg at 1 hour before application of the antigen solution on the day 16. As a control group, a group to which only 0.5 w/v % aqueous solution of MC was similarly administered per os was prepared. […]
In order to adjust the mice to new environment, they were allowed to place for one hour in a cage (7.5×8×15 cm) made of acrylic for observation. […] The numbers of scraching behavior by hind limb to the applied site and around there were counted.

T1 sequence (P46093 whole entry E215Q, the tested form may be a part): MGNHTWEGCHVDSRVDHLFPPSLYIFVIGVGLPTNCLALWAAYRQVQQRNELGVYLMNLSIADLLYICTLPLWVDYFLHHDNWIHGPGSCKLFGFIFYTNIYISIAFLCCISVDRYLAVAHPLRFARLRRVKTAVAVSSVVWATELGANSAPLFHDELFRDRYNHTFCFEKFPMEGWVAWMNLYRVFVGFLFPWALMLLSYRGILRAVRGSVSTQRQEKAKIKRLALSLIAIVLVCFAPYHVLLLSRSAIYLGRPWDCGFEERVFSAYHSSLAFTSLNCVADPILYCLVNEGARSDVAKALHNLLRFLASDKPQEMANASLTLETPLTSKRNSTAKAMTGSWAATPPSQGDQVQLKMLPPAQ

SMILES | IC50 (GPR4) [nM] | Numbers of scratching behavior of the compound-administered group (Itching Induced by SPC) | Numbers of Scratching Behavior (numbers/60 min) [1] [numbers/60 min] | Suppressive rate(%) of scratching behavior induced by Compound 48/80 [1] [%] | Numbers of Scratching Behavior for 1 Hour after Application of Hapten ([2]; 100 mg/kg orally 1 hour before antigen application on day 16) | Numbers of Scratching Behavior for 1 Hour after Application of Hapten ([2]; 300 mg/kg orally 1 hour before antigen application on day 16)
CCc1nc2c(C)cc(C)nc2n1Cc1ccc2c(c1)CCc1cc(CN3CCN(C)CC3)ccc1N2 [Compound 1, 2-(2-Ethyl-5,7-dimethyl-3H-imidazo[4,5-b]pyridin-3-ylmethyl)-8-(4-methylpiperazin-1-ylmethyl)-10,11-dihydro-5H-dibenz[b,f]azepine] | 4 | 13 | 16 | 54 | 138 ± 33 | 2 ± 1
CCc1nc2c(C)cc(C)nc2n1Cc1ccc2c(c1)CCc1cc(CN3CC=CCC3)ccc1N2 [Compound 2, 2-(2-Ethyl-5,7-dimethyl-3H-imidazo[4,5-b]pyridin-3-ylmethyl)-8-(1,2,5,6-tetrahydropyridin-1-ylmethyl)-10,11-dihydro-5H-dibenz[b,f]azepine] | 3.2 | – | – | – | – | –
CCc1nc2c(C)cc(C)nc2n1Cc1ccc2c(c1)CCc1cc(CN3CCCC3)ccc1N2 [Compound 3, 2-(2-Ethyl-5,7-dimethyl-3H-imidazo[4,5-b]pyridin-3-ylmethyl)-8-(pyrrolidin-1-ylmethyl)-10,11-dihydro-5H-dibenz[b,f]azepine] | 2.3 | 18 | 26 | 52 | – | –
CCc1nc2c(C)cc(C)nc2n1Cc1ccc2c(c1)CCc1cc(CN3CCOCC3)ccc1N2 [Compound 4, 2-(2-Ethyl-5,7-dimethyl-3H-imidazo[4,5-b]pyridin-3-ylmethyl)-8-morpholinomethyl-10,11-dihydro-5H-dibenz[b,f]azepine] | 5.8 | – | – | – | – | –
CCc1nc2c(C)cc(C)nc2n1Cc1ccc2c(c1)CCc1cc(CN3CC(C)CC(C)C3)ccc1N2 (stereo not shown) [Compound 5] | 14 | – | – | – | – | –

— patent US20060252679A1, “Preventive and/or trerapeutic drgs for itch” (priority 2002, published 2006)
